22 compounds from US12649727B2, “EFGR inhibitor, preparation method therefor and application thereof” (Abbisko Therapeutics Co., Ltd, priority 2020, dated 2026) can be followed below.

pIC50: −log10 of the molar value.

Holding throughout (format): cell-based
For assay [1], the target named is Ba/F3 EGFR-D770-N771ins_SVD (Homo sapiens, UniProt P00533, DUP768-770, cells depend on it). Kind of assay: Proliferation experiment of Ba/F3 cell line, EGFR-D770-N771ins_SVD (CellTiter-Glo). As to conditions: cultured for 72 hrs with compound, CTG analysis, read-out: Ba/F3 EGFR-D770-N771ins_SVD IC50. The procedure:
(§1) Proliferation Experiment of Ba/F3 Cell Line
(§2) (I) Reagents and Materials
(§3) • Fetal bovine serum FBS (GBICO, Cat #10099-141); • CellTiter-Glo® luminescent cell viability assay kit (Promega, Cat #G7572); • Black transparent flat-bottom 96 well plate (Corning®, Cat #3603). (II) Instruments • SpectraMax multi-label microplate reader MD, 2104-0010A; • Carbon dioxide incubator, Thermo Scientific 3100 series; • Biological safety cabinet, Thermo Scientific, 1300 series model A2; • Inverted microscope, Olympus, CKX41SF; • Siemens refrigerator KK25E76TI. (III) Cell Lines and Culture Conditions
(§4) (IV) Experimental Procedures 1. Cell Culture and Inoculation: • (1) Cells in the logarithmic growth phase were harvested and counted using a […]. Cell viability was detected by Trypan Blue Dye Exclusion Method to ensure cell viability above 90%. • (2) The cell concentration was adjusted to reach a desired final density; 90 μL of cell suspension was added to the 96-well plate. • (3) The cells were incubated overnight in the 96-well plate at 37° C., 5% CO2 and at 95% humidity.
(§5) 2. T0 Reference Data: • (1) 10 μL PBS was added to each well of the TO plate containing the cells. • (2) The CTG reagent was thawed and the cell plate was equilibrated to room temperature for 30 min. • (3) An equal volume of CTG solution was added to each well. • (4) The cells were lysed by shaking on an orbital shaker for 5 min. • (5) The cell plate was left at room temperature for 20 min to stabilize the luminescence signal. • (6) The fluorescence signal values of TO were read. 3. Dilution and Addition of Compounds • (1) According to the compound information table, a corresponding volume of DMSO was added to the corresponding compound powder to prepare a 10 mM stock solution. • (2) A 1000-fold, 3.16-fold-diluted compound solution was prepared. • (3) The 1000× diluted compound solution was diluted 100-fold with PBS to prepare a 10-fold compound solution with a maximum concentration of […], including 9 concentrations, with 3.16-fold dilution, and 10 μL of the medicament solution was added to each well of the 96-well plate to seed the cells. Triplicate wells were set for each compound concentration, with a final concentration of DMSO being 0.1%. • (4) The cells were placed in the 96-well plate filled with the medicament at 37° C., 5% CO2 and at 95% humidity, and cultured for 72 hrs before CTG analysis. 4. Fluorescence Signal Reading • (1) The CTG reagent was thawed and the cell plate was equilibrated to room temperature for 30 min. • (2) An equal volume of CTG solution was added to each well. • (3) The cells were lysed by shaking on an orbital shaker for 5 min. • (4) The cell plate was left at room temperature for 20 min to stabilize the fluorescence signal. • (5) The fluorescence values were read. 5. Data Processing
(§6) Data were analyzed using GraphPad Prism 7.0 software and fitted data were regressed using non-linear S-curves to obtain dose-response curves from which IC50 values (in nM) were calculated.
In general terms: ATP-based viability assays read luminescence as a measure of living cells.

The subject of the next assay is A431 (EGFR-WT). Nature of the assay: Proliferation experiment, A431 cell line (CellTiter-Glo). As to conditions: Homo sapiens, A-431; A431 cells, cultured for 72 hrs with compound, CTG analysis. The method, then:
[The procedure below names another cell line; the source lists this cell line under the same test.] as §1, §2, §3, §4, §5, §6

In assay [2] the target is Ba/F3 EGFR-V769_D770insASV (Homo sapiens, UniProt P00533, DUP767-769, cells depend on it). Nature of the assay: Proliferation experiment of Ba/F3 cell line, EGFR-V769_D770insASV (CellTiter-Glo). To be noted: cultured for 72 hrs with compound, CTG analysis, read-out: Ba/F3 EGFR-V769_D770insASV IC50. The procedure:
as §1, §2, §3, §4, §5, §6

Sequence of Ba/F3 EGFR-D770-N771ins_SVD (P00533 with tags, fused parts or gaps DUP768-770): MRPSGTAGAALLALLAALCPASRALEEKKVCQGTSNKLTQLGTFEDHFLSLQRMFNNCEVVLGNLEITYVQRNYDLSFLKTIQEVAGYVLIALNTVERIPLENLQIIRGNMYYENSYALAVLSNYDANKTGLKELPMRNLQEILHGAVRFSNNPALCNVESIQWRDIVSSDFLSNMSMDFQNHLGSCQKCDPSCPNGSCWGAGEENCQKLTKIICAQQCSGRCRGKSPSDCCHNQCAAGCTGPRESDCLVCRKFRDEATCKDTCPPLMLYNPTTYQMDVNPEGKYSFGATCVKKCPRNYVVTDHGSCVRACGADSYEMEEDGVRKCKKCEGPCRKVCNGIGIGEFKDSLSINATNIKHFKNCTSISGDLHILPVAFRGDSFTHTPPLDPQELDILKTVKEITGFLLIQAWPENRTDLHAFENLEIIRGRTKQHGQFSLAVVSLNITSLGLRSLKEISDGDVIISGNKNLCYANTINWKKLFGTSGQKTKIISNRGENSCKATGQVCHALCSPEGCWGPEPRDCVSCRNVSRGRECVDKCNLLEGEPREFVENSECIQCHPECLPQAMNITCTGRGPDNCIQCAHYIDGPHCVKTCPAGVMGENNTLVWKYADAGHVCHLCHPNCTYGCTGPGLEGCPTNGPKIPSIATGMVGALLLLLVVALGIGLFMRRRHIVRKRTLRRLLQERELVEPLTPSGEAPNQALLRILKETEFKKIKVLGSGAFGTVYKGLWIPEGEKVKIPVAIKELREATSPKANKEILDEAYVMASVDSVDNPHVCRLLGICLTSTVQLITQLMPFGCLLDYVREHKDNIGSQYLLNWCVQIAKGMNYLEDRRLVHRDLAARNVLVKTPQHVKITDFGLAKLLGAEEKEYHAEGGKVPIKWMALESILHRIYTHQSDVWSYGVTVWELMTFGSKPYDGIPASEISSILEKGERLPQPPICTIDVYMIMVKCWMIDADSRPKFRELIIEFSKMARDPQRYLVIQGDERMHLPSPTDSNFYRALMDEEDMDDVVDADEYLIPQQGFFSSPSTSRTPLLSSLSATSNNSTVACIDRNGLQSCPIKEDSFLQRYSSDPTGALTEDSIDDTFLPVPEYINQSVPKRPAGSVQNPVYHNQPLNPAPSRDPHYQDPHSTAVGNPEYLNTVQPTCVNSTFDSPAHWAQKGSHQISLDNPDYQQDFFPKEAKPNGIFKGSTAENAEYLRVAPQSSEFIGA
Sequence of Ba/F3 EGFR-V769_D770insASV (P00533 with tags, fused parts or gaps DUP767-769): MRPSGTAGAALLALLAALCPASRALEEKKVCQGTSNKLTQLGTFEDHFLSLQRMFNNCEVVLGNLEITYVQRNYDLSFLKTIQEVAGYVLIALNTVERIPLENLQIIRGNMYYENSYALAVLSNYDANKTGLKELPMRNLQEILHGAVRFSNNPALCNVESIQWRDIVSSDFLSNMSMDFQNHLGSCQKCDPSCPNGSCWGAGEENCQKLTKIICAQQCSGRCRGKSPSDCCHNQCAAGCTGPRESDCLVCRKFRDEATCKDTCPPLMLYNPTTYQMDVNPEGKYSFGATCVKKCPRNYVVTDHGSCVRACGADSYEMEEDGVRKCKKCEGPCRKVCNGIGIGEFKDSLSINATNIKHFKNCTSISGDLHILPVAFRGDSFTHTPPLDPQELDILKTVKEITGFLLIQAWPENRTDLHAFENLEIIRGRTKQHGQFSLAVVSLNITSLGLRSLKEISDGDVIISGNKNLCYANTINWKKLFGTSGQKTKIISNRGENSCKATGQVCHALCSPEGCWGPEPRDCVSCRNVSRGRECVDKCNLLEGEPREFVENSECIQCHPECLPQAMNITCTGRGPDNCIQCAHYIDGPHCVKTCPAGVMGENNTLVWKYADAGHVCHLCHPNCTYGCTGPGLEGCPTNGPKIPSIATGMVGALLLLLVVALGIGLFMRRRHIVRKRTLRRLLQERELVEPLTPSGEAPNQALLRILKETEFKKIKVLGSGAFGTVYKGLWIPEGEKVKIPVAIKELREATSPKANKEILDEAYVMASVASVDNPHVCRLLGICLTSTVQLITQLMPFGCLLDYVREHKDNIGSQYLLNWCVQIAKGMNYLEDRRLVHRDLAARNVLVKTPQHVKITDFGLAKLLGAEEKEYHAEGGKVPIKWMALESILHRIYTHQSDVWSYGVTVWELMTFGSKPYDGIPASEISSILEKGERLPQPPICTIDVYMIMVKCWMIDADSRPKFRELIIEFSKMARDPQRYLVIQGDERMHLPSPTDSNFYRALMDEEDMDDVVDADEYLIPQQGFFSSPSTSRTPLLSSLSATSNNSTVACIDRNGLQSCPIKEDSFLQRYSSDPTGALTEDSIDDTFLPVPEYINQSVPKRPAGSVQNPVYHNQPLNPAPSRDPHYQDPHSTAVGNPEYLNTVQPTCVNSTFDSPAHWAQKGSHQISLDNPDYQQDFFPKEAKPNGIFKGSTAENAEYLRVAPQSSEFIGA

Consider `C=CC(=O)Nc1cc2c(Nc3cc(-c4ncc(F)cc4F)ccc3F)ncnc2cc1OCCCN1CCOCC1` [Example 2, N-(4-((5-(3,5-difluoropyridin-2-yl)-2-fluorophenyl)amino)-7-(3-morpholinopropoxy)quinazolin-6-yl)acrylamide], for which the GI50 in assay [1] came out at 121 nM. Take `C=CC(=O)Nc1cc2c(Nc3cccc(-c4ccc(F)cc4F)c3)ncnc2cc1C#CC(C)(C)N(C)C` [Example 9, N-(4-((2′,4′-difluoro-[1,1′-biphenyl]-3-yl)amino)-7-(3-(dimethylamino)-3-methylbut-1-yn-1-yl)quinazolin-6-yl)acrylamide]: in assay [1], the GI50 is 40.1 nM. In addition, in the assay on A431 (EGFR-WT), the negative logarithm of the IC50 (pIC50) was 6.20. As for `C=CC(=O)Nc1cc2c(Nc3cc(-c4ccc(F)cc4F)ccc3F)ncnc2cc1OCCN1CCOCC1` [Example 10, N-(7-(2-morpholinoethoxy)-4-((2′,4,4′-trifluoro-[1,1′-biphenyl]-3-yl)amino)quinazolin-6-yl)acrylamide], the GI50 in assay [1] was found to be 28.7 nM. In the assay with A431 (EGFR-WT), the pIC50 is 6.20. With `C=CC(=O)Nc1cc2c(Nc3cccc(-c4ccc(F)cc4F)c3)ncnc2cc1C#CC(C)(C)N1CCN(C)CC1` [Example 12, N-(4-((2′,4′-difluoro-[1,1′-biphenyl]-3-yl)amino)-7-(3-methyl-3-(4-methylpiperazin-1-yl)but-1-yn-1-yl)quinazolin-6-yl)acrylamide], the GI50 in assay [1] is 32.3 nM. Also, the pIC50 in the assay with A431 (EGFR-WT) is 6.20. Regarding `C=CC(=O)Nc1cc2c(Nc3cccc(-c4ccc(F)cn4)c3)ncnc2cc1OCCCN1CCOCC1` [Example 13, N-(4-((3-(5-fluoropyridin-2-yl)phenyl)amino)-7-(3-morpholinopropoxy)quinazolin-6-yl)acrylamide], the GI50 in assay [1] was found to be 105 nM. The negative-log IC50 (pIC50) in the assay with A431 (EGFR-WT) was 6.20. For `C=CC(=O)Nc1cc2c(Nc3cccc(-c4ncc(F)cc4F)c3)ncnc2cc1OCCN1CCOCC1` [Example 16, N-(4-((3-(3,5-difluoropyridin-2-yl)phenyl)amino)-7-(2-morpholinoethoxy)quinazolin-6-yl)acrylamide] the same measures were 34 nM and 6.43. `C=CC(=O)Nc1cc2c(Nc3cc(-c4ncc(F)cc4F)ccc3F)ncnc2cc1OCCN1CCOCC1` [Example 18, N-(4-((5-(3,5-difluoropyridin-2-yl)-2-fluorophenyl)amino)-7-(2-morpholinoethoxy)quinazolin-6-yl)acrylamide]: in assay [1], the GI50 worked out at 129 nM. Turning to `C=CC(=O)Nc1cc2c(Nc3cc(-c4ccc(F)cn4)ccc3F)ncnc2cc1OCCCN1CCOCC1` [Example 23, N-(4-((2-fluoro-5-(5-fluoropyridin-2-yl)phenyl)amino)-7-(3-morpholinopropoxy)quinazolin-6-yl)acrylamide], in assay [1], the GI50 is 261 nM. With `C=CC(=O)Nc1cc2c(Nc3cccc(-c4c(F)cc(F)cc4F)c3)ncnc2cc1OCCN1CCOCC1` [Example 24, N-(7-(2-morpholinoethoxy)-4-((2′,4′,6′-trifluoro-[1,1′-biphenyl]-3-yl)amino)quinazolin-6-yl)acrylamide], the GI50 in assay [1] turned out to be 46.2 nM. Further, the pIC50 with A431 (EGFR-WT) was 6.42. As for `C=CC(=O)Nc1cc2c(Nc3ccnc(-c4ccccc4F)c3)ncnc2cc1OCC(F)(F)F` [Example 84, N-(4-((2-(2-fluorophenyl)pyridin-4-yl)amino)-7-(2,2,2-trifluoroethoxy)quinazolin-6-yl)acrylamide], in assay [2], the GI50 is 3.2 nM. The pIC50 with A431 (EGFR-WT) is 5.75.

`C=CC(=O)Nc1cc2c(Nc3ccnc(-c4ccccc4F)c3)ncnc2cc1OCCOC` [Example 85, N-(4-((2-(2-fluorophenyl)pyridin-4-yl)amino)-7-(2-methoxyethoxy)quinazolin-6-yl)acrylamide]: the GI50 in assay [2] was determined as 3 nM. In the assay on A431 (EGFR-WT), the pIC50 is 5.81. As for `C=C(F)C(=O)Nc1cc2c(Nc3ccnc(-c4ccccc4F)c3)ncnc2cc1OCCOC` [Example 89, 2-fluoro-N-(4-((2-(2-fluorophenyl)pyridin-4-yl)amino)-7-(2-methoxyethoxy)quinazolin-6-yl)acrylamide], in assay [2], the GI50 was 12.8 nM. In addition, the pIC50 with A431 (EGFR-WT) was 6.95. In the case of `C=C(F)C(=O)Nc1cc2c(Nc3ccnc(-c4ccccc4F)c3)ncnc2cc1N1CCN(C)CC1` [Example 101, 2-fluoro-N-(4-((2-(2-fluorophenyl)pyridin-4-yl)amino)-7-(4-methylpiperazin-1-yl)quinazolin-6-yl)acrylamide], the GI50 in assay [2] is 20.8 nM. Further, the pIC50 in the assay on A431 (EGFR-WT) is 6.62. The matching figures for `C=C(F)C(=O)Nc1cc2c(Nc3ccnc(-c4ccccc4F)c3)ncnc2cc1N1CC(OC)C1` [Example 104, 2-fluoro-N-(4-((2-(2-fluorophenyl)pyridin-4-yl)amino)-7-(3-methoxyazetidin-1-yl)quinazolin-6-yl)acrylamide]: 30 nM and 5.93. Take `C=C(F)C(=O)Nc1cc2c(Nc3ccnc(-c4ccccc4F)c3)ncnc2cc1N1CC(F)C1` [Example 106, 2-fluoro-N-(7-(3-fluoroazetidin-1-yl)-4-((2-(2-fluorophenyl)pyridin-4-yl)amino)quinazolin-6-yl)acrylamide]: the GI50 in assay [2] stood at 40.9 nM. Further, the pIC50 in the assay with A431 (EGFR-WT) was 5.78.

Consider `C=C(F)C(=O)Nc1cc2c(Nc3ccnc(-c4ccccc4F)c3)ncnc2cc1N1CCC(F)(F)C1` [Example 108, N-(7-(3,3-difluoropyrrolidin-1-yl)-4-((2-(2-fluorophenyl)pyridin-4-yl)amino)quinazolin-6-yl)-2-fluoroacrylamide], for which the GI50 in assay [2] came to 29.9 nM. On to `C=C(F)C(=O)Nc1cc2c(Nc3ccnc(-c4ccccc4F)c3)ncnc2cc1N1CCC(F)CC1` [Example 109, 2-fluoro-N-(4-((2-(2-fluorophenyl)pyridin-4-yl)amino)-7-(4-fluoropiperidin-1-yl)quinazolin-6-yl)acrylamide], for which the GI50 in assay [2] came to 25.8 nM. Moreover, the negative-log IC50 (pIC50) with A431 (EGFR-WT) was 6.80.

For the compound `C=C(F)C(=O)Nc1cc2c(Nc3ccnc(-c4ccccc4F)c3)ncnc2cc1N1CCC(F)(F)CC1` [Example 110, N-(7-(4,4-difluoropiperidin-1-yl)-4-((2-(2-fluorophenyl)pyridin-4-yl)amino)quinazolin-6-yl)-2-fluoroacrylamide], the GI50 in assay [2] was determined as 52.6 nM. Further, the pIC50 in the assay on A431 (EGFR-WT) is 6.15. With `C=CC(=O)Nc1cc2c(Nc3ccnc(-c4ccccc4F)c3)ncnc2cc1O[C@@H]1CCN(C2CN(C)C2)C1` [Example 115, (R)-N-(4-((2-(2-fluorophenyl)pyridin-4-yl)amino)-7-((1-(1-methylazetidin-3-yl)pyrrolidin-3-yl)oxy)quinazolin-6-yl)acrylamide], the GI50 in assay [2] is 7.6 nM. For the same compound, the negative-log IC50 (pIC50) in the assay with A431 (EGFR-WT) is 7.63.

Take `C=CC(=O)Nc1cc2c(Nc3ccnc(-c4ccccc4F)c3)ncnc2cc1O[C@@H]1CCN(C2CCOCC2)C1` [Example 117, (R)-N-(4-((2-(2-fluorophenyl)pyridin-4-yl)amino)-7-((1-(tetrahydro-2H-pyran-4-yl)pyrrolidin-3-yl)oxy)quinazolin-6-yl)acrylamide]: the GI50 in assay [2] came out at 2.9 nM. The pIC50 in the assay on A431 (EGFR-WT) is 6.01. Take `C=C(F)C(=O)Nc1cc2c(Nc3ccnc(-c4ccccc4F)c3)ncnc2cc1O[C@@H]1CCN(C2CN(C)C2)C1` [Example 119, (R)-2-fluoro-N-(4-((2-(2-fluorophenyl)pyridin-4-yl)amino)-7-((1-(1-methylazetidin-3-yl)pyrrolidin-3-yl)oxy)quinazolin-6-yl)acrylamide]: in assay [2], the GI50 was determined as 3.4 nM. Besides, the pIC50 in the assay with A431 (EGFR-WT) is 7.99. For `C=C(F)C(=O)Nc1cc2c(Nc3ccnc(-c4ccccc4F)c3)ncnc2cc1O[C@@H]1CCN(C2CCN(C)CC2)C1` [Example 120, (R)-2-fluoro-N-(4-((2-(2-fluorophenyl)pyridin-4-yl)amino)-7-((1-(1-methylpiperidin-4-yl)pyrrolidin-3-yl)oxy)quinazolin-6-yl)acrylamide] the same measures were 7.1 nM and 8.22.

The term pIC50 denotes −log10 of the IC50, conventionally taken in molar units.
